Reference: patent US11400091B2, “AXL kinase inhibitors and use of the same” (Sumitomo Pharma Oncology, Inc., priority 2018, dated 2022)

Key:
ES-2 cells = assay: Scratch assay, migration of ovarian tumor cells; format: cell-based; conditions: 6 hours pre-treatment; images 18 hours post-scratching; BMS-777607 up to 10 μM
[1] = Solid state stability at 40° C./75% RH; format: physicochemical
Experimental: Agilent 1260 HPLC was utilized and detailed chromatographic conditions for purity and solubility measurement are listed in Table 13 below.
The table below summarizes the characterization and solid state stability results observed for FB and Forms A, B, and D. Samples were prepared and data was obtained according to the procedures and processes listed above unless otherwise specified. More procedures, processes, and results are listed below in Table 14.

[2] = Dynamic Vapor Sorption (DVS); format: physicochemical; conditions: 25° C.
Experimental: The Dynamic Vapour Sorption studies were performed using a Surface Measurement Systems Ltd. DVS-1 No Video, equipment #2126. The sample is loaded into balance pan, typically 20-30 mg, and equilibrated at 0% RH. […] After completion of the sorption cycle, the sample was dried using the same method. The software used for data collection is DVSWin v3.01 No Video. Data analysis is performed using DVS Standard Analysis Suite v6.3.0 (Standard).

[3] = Kinetic solubility in bio-relevant buffers; format: physicochemical; conditions: for solubility at 24 h: 37 °C, thermodynamic from solid
pH solubility = format: physicochemical; conditions: for solubility at 24 h: 37 °C, thermodynamic from solid; for FC (form change) of residual solid: 24 hours
[4] = Single dose toxicity study; format: in vivo; conditions: single oral 150 mg/kg (free base equivalent); by the end of the recovery period
Experimental: The FB dose levels evaluated were 20, 50, and 150 mg/kg. The test articles were formulated with 1% Tween 80/5% TPGS/Sterile Water for Injection (v/v/v) and the study designed as indicated in Table 15 below:
Endpoints in the study consisted of mortality checks, clinical observations, body weight measurements and toxicokinetics. Following a 7-day post-dose observation period, animals were euthanized, necropsied and macroscopic observations recorded.

[5] = 7-day repeat dose toxicity and toxicokinetics; format: in vivo, CD-1 mice; conditions: high dose level (80 mg/kg/day)
Excerpt: The test articles were formulated with 1% Tween 80/5% TPGS/Sterile Water for Injection (v/v/v) and the study designed as indicated in Table 16 below:
Endpoints during the study consisted of clinical observations, body weight, and toxicokinetics. Animals euthanized due to excessive body weight loss in the toxicology-designated groups were euthanized, necropsied, and macroscopic observations recorded.

[6] = Stability studies of crystalline forms (HPLC); format: physicochemical; conditions: for Stability by HPLC: mono-tartrate salt
[7] = Moisture sorption isotherm of crystalline forms; format: physicochemical
H1650 = H1650 NSCLC xenograft; format: in vivo, athymic nude mice; conditions: 21-day regimen; tartrate salt 40 mpk qd; osimertinib 20 mpk qd
Experimental: H1650 cells were injected subcutaneously into the hind flank of athymic nude mice at 1×10^7 cells/mouse. Once tumor volumes exceeded 100 mm^3, mice were randomized into study arms.
To assess the combination in vivo, the H1650 xenograft model for NSCFC was utilized. […] Slug and E-cadherin mRNA expression was assessed by standard qPCR technique. […] Slug and E-cadherin protein expression was assessed by standard immunoblotting technique.
(§1) Tumor volumes and bodyweights were assessed twice weekly.
as §1

H1650 NSCLC cell line = assay: H1650 cell viability (CellTiter-Glo); format: cell-based; conditions: Homo sapiens, NCI-H1650
[8] = tested on: CYP26 mRNA in MV4-11 leukemia cells; assay: CYP26 mRNA expression (RT-PCR); format: cell-based; conditions: 1 μM RA; 6 hours

CCOc1ccn(-c2ccc(F)cc2)c(=O)c1C(=O)Nc1ccc(Oc2ccnc(N)c2Cl)c(F)c1 [BMS-777607]
migration of ES-2 cells (ES-2 cells): did not inhibit migration

CN1CCN(Cc2ccc(Nc3ncc(Cl)c(Nc4ccccc4S(=O)(=O)N(C)C)n3)cc2)CC1.O=C(O)C(O)C(O)C(=O)O [Form D, 2-((5-chloro-2-((4-((4-methylpiperazin-1-yl)methyl)phenyl)amino)pyrimidin-4-yl)amino)-N,N-dimethylbenzenesulfonamide mono-tartrate salt]
Form Change at 3 weeks ([1]; 3 weeks under 40° C./75% RH): No | HPLC Purity at 3 weeks (area %) ([1]; 3 weeks under 40° C./75% RH): 98.3 area % | Initial HPLC Purity (area %) ([1]; initial, before storage): 98.8 area % | water uptake at 80% RH ([2]; DVS, mono-tartrate salt): 5.2% | FC (form change) after DVS ([2]; up to 80% RH): Yes | solubility at 24 h ([3]; FaSSIF, 24 hours): 3900 µg/mL | FC (form change) of residual solid ([3]; FaSSIF, 24 hours): Yes | solubility at 24 h ([3]; FeSSIF, 24 hours): 4600 µg/mL | solubility at 24 h ([3]; SGF, simulated gastric fluid, 24 hours): > 11000 µg/mL | solubility kinetic ([3]; bio-relevant buffers (FaSSIF, fassgf or other biorelevant, thermodynamic from solid), FaSSIF, FeSSIF and SGF, 37° C., read-out: kinetic solubility in all biorelevant buffers): > 5000 µg/mL | solubility at 24 h (pH solubility; pH 2.0 buffer, pH 2, aqueous buffer): > 6800 µg/mL | FC (form change) of residual solid (pH solubility; pH 4.0): Yes | solubility at 24 h (pH solubility; pH 4.0 buffer, pH 4, aqueous buffer): 230 µg/mL | FC (form change) of residual solid (pH solubility; pH 6.0): Yes | solubility at 24 h (pH solubility; pH 6.0 buffer, pH 6, aqueous buffer): 1900 µg/mL | FC (form change) of residual solid (pH solubility; pH 8.0): Yes | solubility at 24 h (pH solubility; pH 8.0 buffer, pH 8, aqueous buffer): 5 µg/mL | FC (form change) of residual solid (pH solubility; pH 10.0): Yes | solubility at 24 h (pH solubility; pH 10.0 buffer, pH 10, aqueous buffer): 53 µg/mL | mortality [4]: 100% | mortality [5]: one mouse died | Stability Results ([6]; 40° C.): 98.2% | Stability Results ([6]; 40° C./75% RH): 98.4% | Stability Results ([6]; 60° C.): 98.2% | Stability Results ([6]; 60° C./75% RH): 98.2% | Stability Results ([6]; Initial): 98.4% | Stability by HPLC ([6]; listed as D): Stable | Stability by HPLC [6]: No significant changes | Moisture sorption isotherm [7]: hygroscopic | crystal form by XRPD after the moisture absorption/desorption cycle [7]: transformed to the other forms

C=CC(=O)Nc1cc(Nc2nccc(-c3cn(C)c4ccccc34)n2)c(OC)cc1N(C)CCN(C)C [osimertinib]
tumor growth inhibition (% TGI), single agent (H1650): 121% | EC50 (H1650 NSCLC cell line): 2.2 µM | IC50 (H1650 NSCLC cell line; single agent, 72 hours): 2.2 µM

Retinyl Acetate [RA]
induction in mRNA expression levels of CYP26 [8]: ~4.3 fold
